Experimental data taken from EP3900788A1, “NON-PRODUCTIVE ANGIOGENESIS INHIBITOR FOR USE IN THE TREATMENT OF ALZHEIMER'S DISEASE” (Consejo Superior de Investigaciones Científicas (CSIC), priority 2020, dated 2021).

Tested on: APP751SL/+ mice
Experiment: Sorafenib treatment of AD mice: angiogenic cell density and Aβ plaques (Thio-S staining) in brain
Format: in vivo
Conditions: 7-month-old APP751SL/+ mice, Sorafenib treatment 1 month vs vehicle

For `CNC(=O)c1cc(Oc2ccc(NC(=O)Nc3ccc(Cl)c(C(F)(F)F)c3)cc2)ccn1` [Sorafenib], the Aβ plaque load (Thio-S staining of brain) was “significantly reduced”, the “mean Aβ plaque area” value (Thio-S staining of brain) was “significantly reduced” and the “apparition of Iαvβ3+ cells in the brain (Iαvβ3+ cell density)” value (p < 0.001) was “strongly reduced”.
